The results in this text go back to patent publication US11072616B2, “Cyclic peptides targeting alpha-4-beta-7 integrin” (Zealand Pharma A/S, priority 2015, dated 2021).

The target in the assay is T1, integrin α4β7 (Homo sapiens, UniProt P13612+P26010).
T1 sequence (P13612 34-977 limits assumed): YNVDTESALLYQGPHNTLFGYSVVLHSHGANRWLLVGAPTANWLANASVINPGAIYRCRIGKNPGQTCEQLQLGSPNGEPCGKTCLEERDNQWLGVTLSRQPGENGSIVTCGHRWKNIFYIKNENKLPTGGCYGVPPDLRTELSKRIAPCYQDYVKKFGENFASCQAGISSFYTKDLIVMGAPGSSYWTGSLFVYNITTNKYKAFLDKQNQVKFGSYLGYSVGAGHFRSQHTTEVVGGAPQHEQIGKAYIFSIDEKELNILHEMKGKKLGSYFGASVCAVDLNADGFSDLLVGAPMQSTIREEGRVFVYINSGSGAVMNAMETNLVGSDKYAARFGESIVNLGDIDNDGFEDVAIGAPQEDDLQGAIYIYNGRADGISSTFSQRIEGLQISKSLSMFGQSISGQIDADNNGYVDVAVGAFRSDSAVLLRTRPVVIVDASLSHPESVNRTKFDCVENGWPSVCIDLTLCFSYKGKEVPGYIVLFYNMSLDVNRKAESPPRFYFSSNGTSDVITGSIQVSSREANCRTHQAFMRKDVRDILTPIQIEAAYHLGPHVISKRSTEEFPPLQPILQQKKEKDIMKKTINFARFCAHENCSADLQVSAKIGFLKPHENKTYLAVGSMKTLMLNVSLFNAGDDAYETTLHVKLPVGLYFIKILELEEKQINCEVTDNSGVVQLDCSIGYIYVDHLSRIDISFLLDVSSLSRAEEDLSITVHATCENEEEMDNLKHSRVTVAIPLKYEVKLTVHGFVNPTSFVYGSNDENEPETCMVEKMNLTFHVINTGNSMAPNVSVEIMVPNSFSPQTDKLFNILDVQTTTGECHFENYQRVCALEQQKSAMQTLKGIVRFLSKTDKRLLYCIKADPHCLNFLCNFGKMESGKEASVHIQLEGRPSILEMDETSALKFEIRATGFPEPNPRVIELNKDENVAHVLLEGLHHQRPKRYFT
T1 sequence (P26010 20-723 limits assumed): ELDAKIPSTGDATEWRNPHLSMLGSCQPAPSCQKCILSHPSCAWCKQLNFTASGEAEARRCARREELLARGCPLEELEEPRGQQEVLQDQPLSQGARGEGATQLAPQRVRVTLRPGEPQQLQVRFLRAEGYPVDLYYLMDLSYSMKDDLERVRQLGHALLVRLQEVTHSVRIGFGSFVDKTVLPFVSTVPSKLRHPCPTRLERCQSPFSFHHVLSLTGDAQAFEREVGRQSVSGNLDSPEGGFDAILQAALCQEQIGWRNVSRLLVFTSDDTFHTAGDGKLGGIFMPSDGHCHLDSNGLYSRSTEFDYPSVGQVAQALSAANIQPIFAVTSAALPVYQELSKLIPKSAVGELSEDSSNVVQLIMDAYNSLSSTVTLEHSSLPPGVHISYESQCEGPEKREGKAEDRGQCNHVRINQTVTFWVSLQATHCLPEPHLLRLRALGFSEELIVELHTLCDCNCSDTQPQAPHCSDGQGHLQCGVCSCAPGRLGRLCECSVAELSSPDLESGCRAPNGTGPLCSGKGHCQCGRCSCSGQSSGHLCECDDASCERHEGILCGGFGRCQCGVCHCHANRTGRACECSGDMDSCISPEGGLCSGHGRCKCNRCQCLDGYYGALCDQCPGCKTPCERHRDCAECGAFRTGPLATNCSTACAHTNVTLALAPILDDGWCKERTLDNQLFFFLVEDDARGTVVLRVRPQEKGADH
In words: Integrin α4β7—MAdCAM-1 competition assay (ELISA). In kind it is binding. On the procedure: Integrin α4β7—MAdCAM-1 Competition Assay
The plate was incubated at 4° C. overnight. […] The plate was then incubated for 1 hour at room temperature. The plate was washed three times with wash buffer (50 mM Tris, 100 mM NaCl, 1 mM MnCl2, 0.05% Tween). To each well, 50 μl of compound diluted in assay buffer was added by transfer from a compound serial dilution plate. […] The plate was incubated at room temperature with shaking for 2 hours to reach binding equilibrium. Then the plate was washed three times in wash buffer and 100 μl anti-human IgG Fc specific-horseradish peroxidase (HRP) (Abcam, Ab97225) diluted at 1:2000 in assay buffer was added to each well. The plate was incubated at room temperature for 1 hour under agitation. The plates were then washed three times and 100 μl of 1,3′,5,5′-tetramethylbenxidie (TMB) was then added to each well.
(ELISA stands for enzyme-linked immunosorbent assay.)

Where [1] appears, read: ratio a4b1 ELISA IC50 / a4b7 ELISA IC50.

Read-outs that look alike come from different tables or passages of the source.

Turning to `CCO[C@H](C)[C@@H]1NC(=O)[C@H](CC(=O)O)NC(=O)[C@H](CC(C)C)NC(=O)[C@H](Cc2ccccc2)NC(=O)[C@@H]2CCCN2[C@H](C(=O)NC(C)(C)C)[C@H](C)NC1=O` [Compound 41], the “Selectivity ELISA” value under setting [1] turned out to be 2.5.

Consider `CC(C)C[C@@H]1NC(=O)[C@H](Cc2csc(-c3ccccn3)n2)NC(=O)[C@@H]2CCCN2[C@H](C(=O)NC(C)(C)C)[C@H](C)NC(=O)[C@H]([C@@H](C)O)NC(=O)[C@H](CC(=O)O)NC1=O` [Compound 95], for which the “Selectivity ELISA” value under setting [1] amounted to 2.4.

With `CC(C)C[C@@H]1NC(=O)[C@H]2CCCCN2C(=O)[C@H](Cc2ccccc2I)NC(=O)[C@@H]2CCCN2[C@H](C(=O)NC(C)(C)C)[C@H](C)NC(=O)[C@H]([C@@H](C)O)NC(=O)[C@H](CC(=O)O)NC1=O` [Compound 133], the “Selectivity ELISA” value under setting [1] came to 5.3.

With `CC(C)C[C@@H]1NC(=O)c2ccc(-c3ccc(N4CCN(C(=O)COCC(=O)N5CCN(c6ccc(-c7ccc8cc7CNC(=O)[C@@H]7CCCN7[C@H](C(=O)NC(C)(C)C)[C@H](C)NC(=O)[C@H]([C@@H](C)O)NC(=O)[C@H](CC(=O)O)NC(=O)[C@H](CC(C)C)NC8=O)cc6)CC5)CC4)cc3)c(c2)CNC(=O)[C@@H]2CCCN2[C@H](C(=O)NC(C)(C)C)[C@H](C)NC(=O)[C@H]([C@@H](C)O)NC(=O)[C@H](CC(=O)O)NC1=O` [Compound 390], the “Selectivity ELISA” value is 1.749.

On to `C=CCOc1ccc(C[C@@H]2NC(=O)[C@@H]3CCCN3[C@H](C(=O)NC(C)(C)C)[C@H](C)NC(=O)[C@H]([C@@H](C)O)NC(=O)[C@H](CC(=O)O)NC(=O)[C@H](CC(C)C)NC(=O)[C@@H](C(C)C)NC2=O)cc1` [Compound 166], for which the “Selectivity ELISA” value under setting [1] is listed as 7.7.

Regarding `C=CCOc1ccc(C[C@@H]2NC(=O)[C@@H]3CCCN3[C@H](C(=O)NC(C)(C)C)[C@H](C)NC(=O)[C@H]([C@@H](C)O)NC(=O)[C@H](CC(=O)O)NC(=O)[C@H](CC(C)C)NC(=O)CNC2=O)cc1` [Compound 163], the “Selectivity ELISA” value under setting [1] is recorded as 11.0.

As to `COc1cccc(-c2ccccc2C[C@@H]2NC(=O)[C@@H]3CCCN3[C@H](C(=O)NC(C)(C)C)[C@H](C)NC(=O)[C@H]([C@@H](C)O)NC(=O)[C@H](CC(=O)O)NC(=O)[C@H](CC(C)C)NC(=O)[C@H]3CCCCN3C2=O)c1` [Compound 136], the “Selectivity ELISA” value under setting [1] is listed as 6.6.

For the molecule `CC(C)C[C@@H]1NC(=O)[C@H](CC2CCCCC2)NC(=O)[C@@H]2CCCN2[C@H](C(=O)NC(C)(C)C)[C@H](C)NC(=O)[C@H]([C@@H](C)O)NC(=O)[C@H](CC(=O)O)NC1=O` [Compound 7], under setting [1], the “Selectivity ELISA” value was 1.6.

For `CC(C)C[C@@H]1NC(=O)C[C@H](CCCCN)NC(=O)[C@H](Cc2ccc(I)cc2)NC(=O)[C@@H]2CCCN2[C@H](C(=O)NC(C)(C)C)[C@H](C)NC(=O)[C@H]([C@@H](C)O)NC(=O)[C@H](CC(=O)O)NC1=O` [Compound 260], the “Selectivity ELISA” value under setting [1] is reported as 58.1.

`CC(C)C[C@@H]1NC(=O)[C@@H](CCCNC(=N)N)N(C)C(=O)[C@H](Cc2ccc(O)cc2)NC(=O)[C@@H]2CCCN2[C@H](C(=O)NC(C)(C)C)[C@H](C)NC(=O)[C@H]([C@@H](C)O)NC(=O)[C@H](CC(=O)O)NC1=O` [Compound 157]: the “Selectivity ELISA” value under setting [1] is recorded as 55.3.

For `CC(C)C[C@@H]1NC(=O)C[C@H](CCCCN)NC(=O)[C@H](Cc2ccccc2-c2ccc(N3CCNCC3)cc2)NC(=O)[C@@H]2CCCN2[C@H](C(=O)NC(C)(C)C)[C@H](C)NC(=O)[C@H]([C@@H](C)O)NC(=O)[C@H](CC(=O)O)NC1=O` [Compound 271], under setting [1], the “Selectivity ELISA” value worked out at 34.6.

Regarding `Cc1cccc(C)c1-c1ccccc1C[C@@H]1NC(=O)[C@@H]2CCCN2[C@H](C(=O)NC(C)(C)C)[C@H](C)NC(=O)[C@H]([C@@H](C)O)NC(=O)[C@H](CC(=O)O)NC(=O)[C@H](CC(C)C)NC(=O)C[C@H](CCCCN)NC1=O` [Compound 272], the “Selectivity ELISA” value under setting [1] came out at 58.1.

`CC(C)C[C@@H]1NC(=O)c2ccc(-c3cccc(CN)c3)c(c2)CNC(=O)[C@@H]2CCCN2[C@H](C(=O)NC(C)(C)C)[C@H](C)NC(=O)[C@H]([C@@H](C)O)NC(=O)[C@H](CC(=O)O)NC1=O` [Compound 382]: the “Selectivity ELISA” value under setting [1] is 2.0.

With `CC(C)C[C@@H]1NC(=O)[C@H]2CCCCN2C(=O)[C@H](Cc2cccc3ccccc23)NC(=O)[C@@H]2CCCN2[C@H](C(=O)NC(C)(C)C)[C@H](C)NC(=O)[C@H]([C@@H](C)O)NC(=O)[C@H](CC(=O)O)NC1=O` [Compound 143], the “Selectivity ELISA” value under setting [1] worked out at 2.1.

Regarding `CC[C@H](C)[C@@H]1NC(=O)[C@H](CC(=O)O)NC(=O)[C@H](CC(C)C)NC(=O)[C@@H](CCCCN)N(C)C(=O)[C@H](Cc2ccc(O)cc2)NC(=O)[C@@H]2CCCN2[C@H](C(=O)NC(C)(C)C)[C@H](C)NC1=O` [Compound 154], the “Selectivity ELISA” value under setting [1] was 22.8.

With `CC(C)C[C@@H]1NC(=O)CN(C)C(=O)[C@H](Cc2cccc3ccccc23)NC(=O)[C@@H]2CCCN2[C@H](C(=O)NC(C)(C)C)[C@H](C)NC(=O)[C@H]([C@@H](C)O)NC(=O)[C@H](CC(=O)O)NC1=O` [Compound 117], the “Selectivity ELISA” value under setting [1] is recorded as 8.7.

In the case of `CC(C)C[C@@H]1NC(=O)[C@@H]2C[C@@H](OCc3ccccc3)CN2C(=O)[C@@H]2CCCN2[C@H](C(=O)NC(C)(C)C)[C@H](C)NC(=O)[C@H]([C@@H](C)O)NC(=O)[C@H](CC(=O)O)NC1=O` [Compound 57], the “Selectivity ELISA” value under setting [1] was determined as 2.5.

As to `Cc1cccc(C)c1-c1ccc(C[C@@H]2NC(=O)[C@@H]3CCCN3[C@H](C(=O)NC(C)(C)C)[C@H](C)NC(=O)[C@H]([C@@H](C)O)NC(=O)[C@H](CC(=O)O)NC(=O)[C@H](CC(C)C)NC(=O)C[C@H](CCCCN)NC2=O)cc1` [Compound 268], under setting [1], the “Selectivity ELISA” value is reported as 24.6.

As for `CC(C)C[C@@H]1NC(=O)C[C@H](CCCCN)NC(=O)C2(CCNCC2)NC(=O)[C@@H]2CCCN2[C@H](C(=O)NC(C)(C)C)[C@H](C)NC(=O)[C@H]([C@@H](C)O)NC(=O)[C@H](CC(=O)O)NC1=O` [Compound 275], under setting [1], the “Selectivity ELISA” value came out at 7.7.

Regarding `CC(C)C[C@@H]1NC(=O)[C@@H](CCCN(C)C)NC(=O)[C@@H]2CCCN2[C@H](C(=O)NC(C)(C)C)[C@H](C)NC(=O)[C@H]([C@@H](C)O)NC(=O)[C@H](CC(=O)O)NC1=O` [Compound 83], the “Selectivity ELISA” value under setting [1] is 6.9.

For `CC(C)C[C@@H]1NC(=O)[C@@H](CCCCN)NC(=O)[C@H](Cc2ccc(O)cc2)NC(=O)[C@@H]2CCCN2[C@H](C(=O)NC(C)(C)C)[C@H](C)NC(=O)[C@H]([C@@H](C)O)N(C)C(=O)[C@H](CC(=O)O)NC1=O` [Compound 121], under setting [1], the “Selectivity ELISA” value was 11.4.

Consider `C[C@@H]1NC(=O)[C@H]([C@@H](C)O)NC(=O)[C@H](CC(=O)O)NC(=O)[C@H](CC(C)(C)C)NC(=O)[C@H]2CCCCN2C(=O)[C@H](Cc2ccc(O)cc2)NC(=O)[C@@H]2CCCN2[C@@H]1C(=O)NC(C)(C)C` [Compound 150], for which, under setting [1], the “Selectivity ELISA” value is on record as 8.2.

Turning to `CC(C)C[C@@H]1NC(=O)[C@@H](CCCCN)NC(=O)[C@H](Cc2ccc(-c3ccccc3)cc2)NC(=O)[C@@H]2CCCN2[C@H](C(=O)NC(C)(C)C)[C@H](C)NC(=O)[C@H]([C@@H](C)O)NC(=O)[C@H](CC(=O)O)NC1=O` [Compound 110], under setting [1], the “Selectivity ELISA” value worked out at 21.3.
